# Measured values reported in ChEMBL document CHEMBL1287695, “Cholesterol-derived novel anti-apoptotic agents on the structural basis of ginsenoside Rk1” (Bioorg Med Chem Lett, 2010).
# Calls of active or inactive are those of the source. The rule behind the calls is not given here.
# Legend:
# Assay type in all cases: functional, cell-based
# Conditions in all cases: Homo sapiens
# HUVEC [1] = assay: Antiapoptotic activity against HUVEC cells at 10 ug/ml after 24 hrs by MTT calorimetric assay
# HUVEC [2] = assay: Antiapoptotic activity against HUVEC cells at 5 ug/ml after 48 hrs by MTT calorimetric assay
# HUVEC [3] = assay: Antiapoptotic activity against HUVEC cells at 10 ug/ml after 48 hrs by MTT calorimetric assay
# HUVEC [4] = assay: Antiapoptotic activity against HUVEC cells at 5 ug/ml after 24 hrs by MTT calorimetric assay
# HREC = assay: Antiapoptotic activity against HREC cells assessed as cell viability after 48 hrs
# HUVEC [5] = assay: Antiapoptotic activity against HUVEC cells assessed as inhibition of DNA condensation and fragmentation after 48 hrs by DAPI staining
# HUVEC [6] = assay: Antiapoptotic activity against HUVEC cells assessed as inhibition of DNA condensation and fragmentation after 48 hrs by TUNEL assay
Structure (SMILES),Activity (HUVEC [1]),Activity (HUVEC [2]),Activity (HUVEC [3]),Activity (HUVEC [4]),Activity (HREC),Activity (HUVEC [5]),Activity (HUVEC [6])
CC(C)CCC[C@@H](C)[C@H]1CC[C@H]2[C@@H]3CC=C4C[C@@H](O[C@H]5C=C[C@H](O)[C@@H](CO)O5)CC[C@]4(C)[C@H]3CC[C@]12C,inactive,inactive,inactive,inactive,,,
COC[C@H]1O[C@@H](O[C@H]2CC[C@@]3(C)C(=CC[C@H]4[C@@H]5CC[C@H]([C@H](C)CCCC(C)C)[C@@]5(C)CC[C@@H]43)C2)C=C[C@@H]1OC,Active,Active,Active,Active,,,
COC[C@H]1O[C@@H](O[C@H]2CC[C@@]3(C)C(=CC[C@H]4[C@@H]5CC[C@H]([C@H](C)CCCC(C)C)[C@@]5(C)CC[C@@H]43)C2)C[C@@H](OC)[C@@H]1OC,inactive,inactive,inactive,inactive,,,
CC(C)CCC[C@@H](C)[C@H]1CC[C@H]2[C@@H]3CC=C4C[C@@H](O[C@@H]5O[C@H](CO)[C@@H](O)[C@H](O)[C@H]5O)CC[C@]4(C)[C@H]3CC[C@]12C,inactive,inactive,inactive,inactive,,,
CC(C)CCC[C@@H](C)[C@H]1CC[C@H]2[C@@H]3CC=C4C[C@@H](Oc5ccc6ccccc6c5)CC[C@]4(C)[C@H]3CC[C@]12C,,Active,,Active,,,
CC(C)CCC[C@@H](C)[C@H]1CC[C@H]2[C@@H]3CC=C4C[C@@H](O[C@H]5CCCCO5)CC[C@]4(C)[C@H]3CC[C@]12C,Active,Active,Active,Active,Active,Active,Active
C=CCO[C@H]1CC[C@@]2(C)C(=CC[C@H]3[C@@H]4CC[C@H]([C@H](C)CCCC(C)C)[C@@]4(C)CC[C@@H]32)C1,,Active,,Active,,,
C=C(CCC=C(C)C)[C@H]1CC[C@]2(C)[C@@H]1[C@H](O)C[C@@H]1[C@@]3(C)CC[C@H](O[C@@H]4O[C@H](CO)[C@@H](O)[C@H](O)[C@H]4O[C@@H]4O[C@H](CO)[C@@H](O)[C@H](O)[C@H]4O)C(C)(C)[C@@H]3CC[C@]12C,Active,Active,Active,Active,,,
CC(C)CCC[C@@H](C)[C@H]1CC[C@H]2[C@@H]3CC=C4C[C@@H](O[C@H]5C[C@@H](O)[C@H](O)[C@@H](CO)O5)CC[C@]4(C)[C@H]3CC[C@]12C,Active,Active,Active,Active,,,
COCCOCO[C@H]1CC[C@@]2(C)C(=CC[C@H]3[C@@H]4CC[C@H]([C@H](C)CCCC(C)C)[C@@]4(C)CC[C@@H]32)C1,,Active,,Active,,,
CC(=O)OC[C@H]1O[C@@H](O[C@H]2CC[C@@]3(C)C(=CC[C@H]4[C@@H]5CC[C@H]([C@H](C)CCCC(C)C)[C@@]5(C)CC[C@@H]43)C2)C=C[C@@H]1OC(C)=O,Active,Active,Active,Active,Active,Active,Active
CC(C)CCC[C@@H](C)[C@H]1CC[C@H]2[C@@H]3CC=C4C[C@@H](OC/C=C/CO)CC[C@]4(C)[C@H]3CC[C@]12C,,Active,,Active,,,
